From patent US9856234B2, “Heterocyclic compounds and their use as glycogen synthase kinase 3 inhibitors” (ABBVIE INC., priority 2006, dated 2018) come the findings set out here.

For the experiment, the target named is T1, human Glycogen Synthase Kinase-3 beta (hGSK-3β) (Homo sapiens, UniProt P49841).
T1 construct: purchased Upstate cell signaling solutions
T1 sequence (P49841 whole entry): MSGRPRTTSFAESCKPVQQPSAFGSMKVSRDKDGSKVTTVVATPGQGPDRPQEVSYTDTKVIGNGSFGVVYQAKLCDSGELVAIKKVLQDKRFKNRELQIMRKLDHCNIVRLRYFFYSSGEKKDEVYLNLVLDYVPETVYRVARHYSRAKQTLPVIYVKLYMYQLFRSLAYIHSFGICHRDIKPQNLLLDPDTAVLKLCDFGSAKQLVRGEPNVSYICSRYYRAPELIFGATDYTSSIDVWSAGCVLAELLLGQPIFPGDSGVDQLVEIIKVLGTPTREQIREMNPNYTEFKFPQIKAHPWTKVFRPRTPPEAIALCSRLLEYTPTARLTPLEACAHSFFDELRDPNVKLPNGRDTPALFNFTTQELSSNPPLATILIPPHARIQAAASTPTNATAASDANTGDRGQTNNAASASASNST
Briefly: Biochemical hGSK-3Beta assay (33P-ATP phosphorylation of biotinylated peptide substrate). The settings on record: 10 μM ATP, 30 minutes at room temperature; read-out: GSK-3β IC50. The protocol:
Methods—Biochemical hGSK-3Beta Assay
Compounds were tested for their ability to inhibit human Glycogen Synthase Kinase-3 beta (hGSK-3β) to phosphorylate biotin-[…](pS)EDEEE. Compounds were incubated with 0.5 μCi 33P-ATP, 10 μM ATP, 0.0125 U hGSK-3β (Upstate cell signaling solutions) and 1 μM substrate (biotin-[…](pS)EDEEE) in 50 mM HEPES, 10 mM MgCl2, […], 1 mM DTT, 0.0075% Triton, 2% DMSO (total volume 50 μL) for 30 minutes at room temperature. The incubation was stopped by addition of an equal volume of 100 mM EDTA, 4M NaCl. 80 μL of this mixture was added to streptavidin-coated Flashplates (PerkinElmer). Following a wash step, 33P incorporation was quantified on a MicroBeta microplate liquid scintillation counter (Perkin Elmer). IC50's were determined by fitting a sigmoidal dose-response curve to the counts obtained at the different concentrations in Graph Pad Prism.
On to `Cc1cc(NC(=O)Nc2cnccn2)c2ccccc2n1` [Example 12, 1-(2-Methyl-quinolin-4-yl)-3-pyrazin-2-yl-urea], for which the IC50 (commonly the midpoint of a concentration-inhibition curve) fell in the range of 100 to 10000 nM. As for “1-(Pyrazin-2-yl)-3-(pyridin-4-yl)urea [Example 24]”, the IC50 fell in the range of 100 to 10000 nM. Regarding “1-Methyl-1-pyrazin-2-yl-3-(6-trifluoromethyl-quinolin-4-yl)-urea [Example 22]”, the IC50 is > 10000 nM. `O=C(Nc1cnccn1)Nc1cccc2ccccc12` [Example 7, 1-Naphthalen-1-yl-3-pyrazin-2-yl-urea]: the IC50 is > 10000 nM.

Regarding `O=C(Nc1ccccn1)Nc1ccnc2cc(C(F)(F)F)ccc12` [Example 29, 1-(Pyridin-2-yl)-3-(7-(trifluoromethyl)quinolin-4-yl)urea], the IC50 was in the range of 100 to 10000 nM. Consider `O=C(Nc1cnccn1)Nc1cccc2cnccc12` [Example 20, 1-Isoquinolin-5-yl-3-pyrazin-2-yl-urea], for which the IC50 was in the range of 100 to 10000 nM. As for `O=C(Nc1ccccc1)Nc1ccnc2ccccc12` [Example 30, 1-Phenyl-3-(quinolin-4-yl)urea, reference compound], the IC50 was > 10000 nM. Turning to `O=C(Nc1cnccn1)Nc1cccc2ccncc12` [Example 19, 1-Isoquinolin-8-yl-3-pyrazin-2-yl-urea], the IC50 is 100 to 10000 nM.

As for `O=C(Nc1cnccn1)Nc1ccnc2c(Cl)cccc12` [Example 32, 1-(8-Chloroquinolin-4-yl)-3-(pyrazin-2-yl)urea], the IC50 is < 100 nM. Turning to `O=C(Nc1cnccn1)Nc1ccnc2ccc(Br)cc12` [Example 2, 1-(6-Bromo-quinolin-4-yl)-3-pyrazin-2-yl-urea], the IC50 is < 100 nM. In the case of `O=C(Nc1cnccn1)Nc1cc(C(F)(F)F)nc2ccccc12` [Example 1, 1-Pyrazin-2-yl-3-(2-trifluoromethyl-quinolin-4-yl)-urea], the IC50 is 100 to 10000 nM. Consider `O=C(Nc1cnccn1)Nc1cccc2ncccc12` [Example 21, 1-Pyrazin-2-yl-3-quinolin-5-yl-urea], for which the IC50 is 100 to 10000 nM. As for `O=C(Nc1cnccn1)Nc1ccnc2c(I)cccc12` [Example 34, 1-(8-Iodoquinolin-4-yl)-3-(pyrazin-2-yl)urea], the figure is < 100 nM; as for `O=C(Nc1cnc2ccccc2c1)Nc1cnccn1` [Example 40, 1-(Pyrazin-2-yl)-3-(quinolin-3-yl)urea, reference compound], > 10000 nM; as for `O=C(Nc1cnccn1)Nc1c2c(nc3ccccc13)CCCC2` [Example 5, 1-Pyrazin-2-yl-3-(1,2,3,4-tetrahydro-acridin-9-yl)-urea], 100 to 10000 nM. For the molecule `O=C(Nc1cnccn1)Nc1ccnc2cc(I)ccc12` [Example 27, 1-(7-Iodoquinolin-4-yl)-3-(pyrazin-2-yl)urea], the IC50 is < 100 nM. Turning to “1-(7-Bromoquinolin-4-yl)-3-(pyrazin-2-yl)urea [Example 28]”, the IC50 was < 100 nM. As for “1-(8-Bromoquinolin-4-yl)-3-(pyrazin-2-yl)urea [Example 37]”, the IC50 was < 100 nM.

For the molecule `O=C(Nc1cnccn1)Nc1c(Br)cnc2ccccc12` [Example 35, 1-(3-Bromoquinolin-4-yl)-3-(pyrazin-2-yl)urea], the concentration for half-maximal inhibition (IC50) is 100 to 10000 nM.

As for `Cc1cccc2c(NC(=O)Nc3cnccn3)ccnc12` [Example 31, 1-(8-Methylquinolin-4-yl)-3-(Pyrazin-2-yl)urea], the IC50 is < 100 nM. The figure for `O=C(Nc1cnccn1)Nc1cncc2ccccc12` [Example 6, 1-Isoquinolin-4-yl-3-pyrazin-2-yl-urea] is 100 to 10000 nM.
